Data taken from patent US20240109853A1 (Shanghai Yao Yuan Biotechnology Co., Ltd., priority 2020, published 2024).
pIC50: −log10 of the molar value. Structures can show the parent of a compound that is named as a salt.

These compounds were tested against ALPK1 (Homo sapiens (Human), UniProt Q96QP1) (assay: ALPK1 in vitro kinase assay (HTRF of TIFA phosphorylation)). Details: ALPK1 2 nM, TIFA substrate, ADP-Heptose activator, HTRF readout.
Assay type: biochemical

ALPK1, sequence (Q96QP1 whole entry): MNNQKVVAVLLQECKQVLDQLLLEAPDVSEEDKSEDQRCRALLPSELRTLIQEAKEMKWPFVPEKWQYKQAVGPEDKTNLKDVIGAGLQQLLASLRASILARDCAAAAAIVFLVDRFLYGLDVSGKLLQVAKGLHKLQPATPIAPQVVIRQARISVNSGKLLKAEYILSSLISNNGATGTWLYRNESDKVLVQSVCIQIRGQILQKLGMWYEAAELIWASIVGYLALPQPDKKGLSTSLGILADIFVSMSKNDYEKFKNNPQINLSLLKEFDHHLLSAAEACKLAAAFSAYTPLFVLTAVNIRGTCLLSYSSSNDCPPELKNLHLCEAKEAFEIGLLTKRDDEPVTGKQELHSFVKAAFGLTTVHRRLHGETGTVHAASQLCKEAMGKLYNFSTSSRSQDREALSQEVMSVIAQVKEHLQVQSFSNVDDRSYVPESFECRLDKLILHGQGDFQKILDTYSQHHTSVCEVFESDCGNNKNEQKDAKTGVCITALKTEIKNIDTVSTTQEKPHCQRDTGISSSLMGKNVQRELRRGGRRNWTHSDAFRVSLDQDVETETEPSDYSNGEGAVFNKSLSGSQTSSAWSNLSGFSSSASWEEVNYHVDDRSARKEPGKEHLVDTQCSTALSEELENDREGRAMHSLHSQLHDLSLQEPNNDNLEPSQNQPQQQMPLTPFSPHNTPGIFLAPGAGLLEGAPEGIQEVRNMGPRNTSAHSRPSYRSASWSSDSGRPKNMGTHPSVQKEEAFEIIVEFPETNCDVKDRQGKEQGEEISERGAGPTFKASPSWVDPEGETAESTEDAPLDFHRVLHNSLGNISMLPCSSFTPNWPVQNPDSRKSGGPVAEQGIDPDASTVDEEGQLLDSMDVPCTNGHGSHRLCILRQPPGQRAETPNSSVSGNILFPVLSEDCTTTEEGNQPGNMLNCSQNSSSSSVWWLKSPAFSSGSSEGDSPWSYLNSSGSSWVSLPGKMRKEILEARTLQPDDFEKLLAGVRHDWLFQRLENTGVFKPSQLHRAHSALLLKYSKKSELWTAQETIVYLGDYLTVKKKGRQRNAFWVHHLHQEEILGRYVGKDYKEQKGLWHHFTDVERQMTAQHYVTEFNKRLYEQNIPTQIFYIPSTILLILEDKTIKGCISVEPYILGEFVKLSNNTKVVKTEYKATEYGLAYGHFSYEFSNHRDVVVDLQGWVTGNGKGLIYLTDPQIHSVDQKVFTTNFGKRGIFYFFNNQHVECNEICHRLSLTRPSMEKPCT

| Structure (SMILES) | pIC50 |
| --- | --- |
| COc1ccc(C(C)(C)c2csc(NC(=O)c3ccc(N4CCNCC4)nc3)n2)cc1 [Example B042, N-(4-(2-(4-methoxyphenyl)propan-2-yl)thiazol-2-yl)-6-(piperazin-1-yl)nicotinamide] | 7.07 |
| COc1ccc(C(C)(C)c2csc(NC(=O)c3ccc(N4CCC(N)C4)nc3)n2)cc1 (stereo not drawn) [Example B043, 6-(3-aminopyrrolidin-1-yl)-N-(4-(2-(4-methoxyphenyl)propan-2-yl)thiazol-2-yl)nicotinamide] | 6.85 |
| COc1ccc(C(C)(C)c2csc(NC(=O)c3ccc(N4CCNCC4)cn3)n2)cc1 [Example B044, N-(4-(2-(4-methoxyphenyl)propan-2-yl)thiazol-2-yl)-5-(piperazin-1-yl)picolinamide] | 6.67 |
| Cc1ccc(C(C)(C)c2csc(NC(=O)c3ccc(N4CCNCC4)nc3)n2)cc1 [Example B045, 6-(piperazin-1-yl)-N-(4-(2-(p-tolyl)propan-2-yl)thiazol-2-yl)nicotinamide] | 7.52 |
| Cc1ccc(C(C)(C)c2csc(NC(=O)c3ccc(CN4CCN(C)CC4)cc3)n2)cc1 [Example B046, 4-((4-methylpiperazin-1-yl)methyl)-N-(4-(2-(p-tolyl)propan-2-yl)thiazol-2-yl)benzamide] | 7.55 |
| COc1ccc(C(C)(C)c2csc(NC(=O)c3ccc(C4CCNCC4)cc3)n2)cc1 [Example B047, N-(4-(2-(4-methoxyphenyl)propan-2-yl)thiazol-2-yl)-4-(piperidin-4-yl)benzamide hydrochloride] | 6.89 |
| COc1ccc(C(C)(C)c2csc(NC(=O)c3ccc(C4(O)CCNCC4)cc3)n2)cc1 [Example B049, 4-(4-hydroxypiperidin-4-yl)-N-(4-(2-(4-methoxyphenyl)propan-2-yl)thiazol-2-yl)benzamide hydrochloride] | 6.34 |
| COc1ccc(C(C)(C)c2csc(NC(=O)c3cc(I)cc(I)c3O)n2)cc1 [Example B050, 2-hydroxy-3,5-diiodo-N-(4-(2-(4-methoxyphenyl)propan-2-yl)thiazol-2-yl)benzamide] | 7.11 |
| CC(C)(c1ccc(Br)cc1)c1csc(NC(=O)c2ccc(CN3CCN(CCO)CC3)nc2)n1 [Example B051, N-(4-(2-(4-bromophenyl)propan-2-yl)thiazol-2-yl)-6-((4-(2-hydroxyethyl)piperazin-1-yl)methyl)nicotinamide] | 7.21 |
| COc1ccc(C(C)(C)c2csc(NC(=O)c3ccc(CN4CCN(CCO)CC4)nc3)n2)cc1 [Example B052, 6-((4-(2-hydroxyethyl)piperazin-1-yl)methyl)-N-(4-(2-(4-methoxyphenyl)propan-2-yl)thiazol-2-yl)nicotinamide] | 6.95 |
| COc1ccc(C(C)(C)c2csc(NC(=O)c3ccc(N4CCN(CCO)CC4)nc3)n2)cc1 [Example B053, 6-(4-(2-hydroxyethyl)piperazin-1-yl)-N-(4-(2-(4-methoxyphenyl)propan-2-yl)thiazol-2-yl)nicotinamide] | 6.98 |
| CC(C)(c1ccc(Br)cc1)c1csc(NC(=O)c2ccc(N3CCN(CCO)CC3)nc2)n1 [Example B054, N-(4-(2-(4-bromophenyl)propan-2-yl)thiazol-2-yl)-6-(4-(2-hydroxyethyl)piperazin-1-yl)nicotinamide] | 6.57 |
| CN(C)CCNc1ccc(C(=O)Nc2nc(C(C)(C)c3ccc(Br)cc3)cs2)cn1 [Example B055, N-(4-(2-(4-bromophenyl)propan-2-yl)thiazol-2-yl)-6-((2-(dimethylamino)ethyl)amino)nicotinamide] | 6.90 |
| COc1ccc(C(C)(C)c2csc(NC(=O)c3ccc(NCCN(C)C)nc3)n2)cc1 [Example B056, 6-((2-(dimethylamino)ethyl)amino)-N-(4-(2-(4-methoxyphenyl)propan-2-yl)thiazol-2-yl)nicotinamide] | 6.92 |
| COCCOc1cc(C(=O)Nc2nc(C(C)(C)c3ccc(OC)cc3)cs2)ccc1N1CCNCC1 [Example B057, 3-(2-methoxyethoxy)-N-(4-(2-(4-methoxyphenyl)propan-2-yl)thiazol-2-yl)-4-(piperazin-1-yl)benzamide hydrochloride] | 6.99 |
| Cc1ccc(C(C)(C)c2csc(NC(=O)c3ccc(CN4CCN(CCO)CC4)cc3)n2)cc1 [Example B058, 4-((4-(2-hydroxyethyl)piperazin-1-yl)methyl)-N-(4-(2-(p-tolyl)propan-2-yl)thiazol-2-yl)benzamide] | 7.17 |
| Cc1ccc(C(C)(C)c2csc(NC(=O)c3ccc(CN4CCN(CCO)CC4)nc3)n2)cc1 [Example B059, 6-((4-(2-hydroxyethyl)piperazin-1-yl)methyl)-N-(4-(2-(p-tolyl)propan-2-yl)thiazol-2-yl)nicotinamide] | 6.80 |
| COc1ccc(C(C)(C)c2csc(NC(=O)c3ccc(NCCO)cc3)n2)cc1 [Example B060, 4-((2-hydroxyethyl)amino)-N-(4-(2-(4-methoxyphenyl)propan-2-yl)thiazol-2-yl)benzamide] | 6.55 |
| C#CC(C)(c1ccc(Cl)cc1)c1csc(NC(=O)c2ccc(N3CCNCC3)nc2)n1 (stereo not drawn) [Example B061, N-(4-(2-(4-chlorophenyl)but-3-yn-2-yl)thiazol-2-yl)-6-(piperazin-1-yl)nicotinamide] | 6.78 |
| C#CC(C)(c1ccc(Cl)cc1)c1csc(NC(=O)c2ccc(N3CCNCC3)cc2)n1 (stereo not drawn) [Example B062, N-(4-(2-(4-chlorophenyl)but-3-yn-2-yl)thiazol-2-yl)-4-(piperazin-1-yl)benzamide] | 7.92 |
| COc1ccc(C(C)(C)c2csc(NC(=O)c3ccc(OCC(C)O)cc3)n2)cc1 (stereo not drawn) [Example B063, 4-(2-hydroxypropoxy)-N-(4-(2-(4-methoxyphenyl)propan-2-yl)thiazol-2-yl)benzamide] | 6.61 |
| C#CC(C)(c1ccc(Cl)cc1)c1csc(NC(=O)c2c(F)ccc(OC)c2F)n1 (stereo not drawn) [Example B064, N-(4-(2-(4-chlorophenyl)but-3-yn-2-yl)thiazol-2-yl)-2,6-difluoro-3-methoxybenzamide] | 7.27 |
| C#CC(C)(c1ccc(Cl)cc1)c1csc(NC(=O)c2ccc(N3CCNCC3)cc2F)n1 (stereo not drawn) [Example B065, N-(4-(2-(4-chlorophenyl)but-3-yn-2-yl)thiazol-2-yl)-2-fluoro-4-(piperazin-1-yl)benzamide] | 6.67 |
| C#CC(C)(c1ccc(Cl)cc1)c1csc(NC(=O)c2ccc(N3CCNCC3)c(OC)c2)n1 (stereo not drawn) [Example B066, N-(4-(2-(4-chlorophenyl)but-3-yn-2-yl)thiazol-2-yl)-3-methoxy-4-(piperazin-1-yl)benzamide] | 6.74 |
| C#C[C@](C)(c1ccc(Cl)cc1)c1csc(NC(=O)c2ccc(N3CCNC(CO)C3)cc2)n1 (stereo partly drawn) [Example B078, N-(4-(2-(4-chlorophenyl)but-3-yn-2-yl)thiazol-2-y1)-4-(3-(hydroxymethyl)piperazin-1-yl)benzamide] | 6.77 |
| C#CC(C)(c1ccc(F)cc1)c1csc(NC(=O)c2ccc(N3CCNCC3)c(C(N)=O)c2)n1 (stereo not drawn) [Example B081, N1-(4-(2-(4-fluorophenyl)but-3-yn-2-yl)thiazol-2-yl)-4-(piperazin-1-yl)isophthalamide] | 6.99 |
| C#CC(C)(c1ccc(F)cc1)c1csc(NC(=O)c2c(F)cc(N3CCNC(CO)C3)cc2F)n1 (stereo not drawn) [Example B082, 2,6-difluoro-N-(4-(2-(4-fluorophenyl)but-3-yn-2-yl)thiazol-2-yl)-4-(3-(hydroxymethyl)piperazin-1-yl)benzamide] | 7.60 |
